Experimental data: US7488834B2, “Organic semiconductors” (Alcatel-Lucent USA Inc., priority 2005, dated 2009)

Columns and labels:
[1] = Solubility in organic solvents; assay type: physicochemical
Description: Before fabricating the FETs, the solubility of the two semiconductor compositions in tetrahydrofuran (THF) was determined.

[2] = Solubility in organic solvents; assay type: physicochemical; remark: listed apart in the source
[3] = Viscosity of formulation or solution; assay type: physicochemical; conditions: c = 500 ppm, cyclohexanol/THFA/THF = 86:9:5

Structure (SMILES) | melting point | solubility in THF ([1]; THF) | also measured
CCCCC(C)COc1ccc(-c2ccc(-c3ccc(-c4ccc(OCC(C)CCCC)cc4)s3)s2)cc1 (stereo not shown) [6(2Me)-O-PTTP-O-6(2Me), 5,5′-bis(4-(2-methylhexyloxy)phenyl)-2,2′-bithiophene] | 197 °C | sufficiently soluble in THF(about 61,000 ppm)DSC: mp = 197 °C | 
CCCOCCc1ccc(-c2ccc(-c3ccc(-c4ccc(CCOCCC)cc4)s3)s2)cc1 [3O2PTTP2O3, 5,5′-Bis(4-(propxyethyl)phenyl)-2,2′-bithiophene] |  |  | solubility (in words) ([1]; compared with 6PTTP6): Solubility like6PTTP6
CCCCCC(CC)Oc1ccc(-c2ccc(-c3ccc(-c4ccc(OC(CC)CCCCC)cc4)s3)s2)cc1 (stereo not shown) [6(1Et)-O-PTTP-O-6(1Et), 5,5′-Bis-[4-(1-ethyl-hexyloxy)-phenyl]-[2,2′]bithiophenyl] | 97 to 102 °C | Well soluble in THF(about 330,000 ppm)DSC: mp = 97-102° C.,(broad transition) | 
CCCCCC(C)Oc1ccc(-c2ccc(-c3ccc(-c4ccc(OC(C)CCCCC)cc4)s3)s2)cc1 (stereo not shown) [6(1Me)-O-PTTP-O-6(1Me), 5,5′bis(4-(1-methylhexyloxy)phenyl)-2,2′-bithiophene] | 143 °C |  | solubility in THF relative to 7(2Me)-PTTP-7(2Me) ([1]; THF): approximately twice; solubility in 2-Ethylhexanol ([2]; 2-Ethylhexanol): ~800 ppm; solubility in THF/cyclohexanol 2:8 ([2]; THF/cyclohexanol 2:8 (viscosity 9 mPas)): 4,000 ppm; solubility in o-xylene [2]: 54,000 ppm
CCCCC(CC)COc1ccc(-c2ccc(-c3ccc(-c4ccc(OCC(CC)CCCC)cc4)s3)s2)cc1 (stereo not shown) [6(2Et)-O-PTTP-O-6(2Et), 5,5′-bis(4-(2-ethylhexyloxy)phenyl)-2,2′-bithiophene] | 148 °C | ~70,000 ppm | viscosity η of formulation [3]: 22 mPas; solubility in o-xylene [2]: ~25,000 ppm
CCC(CC)COc1ccc(-c2ccc(-c3ccc(-c4ccc(OCC(CC)CC)cc4)s3)s2)cc1 [4(2Et)-O-PTTP-O-4(2Et), 5,5′-bis(4-(2-ethylbutyloxy)phenyl)-2,2′-bithiophene] |  | solubility in THF about4,900 ppm | 
CCCCCCOc1ccc(-c2ccc(-c3ccc(-c4ccc(OCCCCCC)cc4)s3)s2)cc1 [6-O-PTTP-O-6, 5,5′-bis(4-hexyloxyphenyl)-2,2′-bithiophene] | 243 °C | solubility in THF about600 ppm, lowest value byfar. Differential scanningcalorimetry (“DSC”);melting point = 243° C.,smaller transitions at 65,148, 176, 255, 261° C.(doastereomers or LC) | 
CC(CO)COc1ccc(-c2ccc(-c3ccc(-c4ccc(OCC(C)CO)cc4)s3)s2)cc1 (stereo not shown) [3(3OH,2Me)-O-PTTP-O-3(3OH,2Me), 3-(4-{5′-[4-(3-Hydroxy-2-methyl-propoxy)-phenyl]-[2,2′]bithiophenyl-5-yl}-phenoxy)-2-methyl-propan-1-ol] |  | Low solubility in THF(600 ppm) | 
CC(C)(C)[Si](OCCCCCCOc1ccc(-c2ccc(-c3ccc(-c4ccc(OCCCCCCO[Si](c5ccccc5)(c5ccccc5)C(C)(C)C)cc4)s3)s2)cc1)(c1ccccc1)c1ccccc1 [6(6TBDPSO)-O-PTTP-O-6(6TBDPSO), 5,5′-Bis-{4-[6-(tert-butyl-diphenyl-silanyloxy)-hexyloxy]-phenyl}-[2,2′]bithiophenyl] |  | Well soluble in THF(about 310,000 ppm); | 
C=CC(C=C)OC(=O)CCCCCOc1ccc(-c2ccc(-c3ccc(-c4ccc(OCCCCCC(=O)OC(C=C)C=C)cc4)s3)s2)cc1 [6-[4-(5′-[5-(1-Vinyl-allyloxycarbonyl)-pentyloxy]-phenyl}-[2,2′]bithiophenyl-5-yl)-phenoxy]-hexanoic acid 1-vinyl-allyl ester] |  | well soluble in THF(131,000 ppm) | 
CC(C)CCCC(C)CCOc1ccc(-c2ccc(-c3ccc(-c4ccc(OCCC(C)CCCC(C)C)cc4)s3)s2)cc1 (stereo not shown) [8(3,7Me)-O-PTTP-O-8(3,7Me), 5,5′-bis(4-(3,7-dimethyloctyloxy)phenyl)-2,2′-bithiophene] | 192 °C | solubility in THF about12,000 ppmDCS: mp = 192° C., smallertransition at 143° C.(diastereomer or LC) | 
CC(C)CCCOc1ccc(-c2ccc(-c3ccc(-c4ccc(OCCCC(C)C)cc4)s3)s2)cc1 [5(4Me)-O-PTTP-O-5(4Me), 5,5′-bis(4-(4-methylpentyloxy)phenyl)-2,2′-bithiophene] | 250 °C | solubility in THF about5400 ppm. DSC: mp =250° C., smaller transitionaround 173 °C (couldbe LC) | 
CC(COc1ccc(-c2ccc(-c3ccc(-c4ccc(OCC(C)COC5CCCCO5)cc4)s3)s2)cc1)COC1CCCCO1 (stereo not shown) [3(3THPO,2Me)-O-PTTP-O-3(THPO,2Me), 5,5′-Bis-[4-(2-methyl-propoxy-tetrahydro-pyran)-phenoxy]-[2,2′]bithiophenyl] |  | Well soluble in THF(about 75,000 ppm) | 
